The structures appear in SMILES notation. “Also recorded” adds a separate entry of the source. Where only a bound is given, the exact number is not on record here.

Results on seven molecules are retold here after paper PMC11671014 (PLOS Pathogens, 2024).

The test system of one assay is HepG2 cells. As to the kind of experiment: HepG2 72-h viability, CellTiter-Glo. It is filed as cell-based. Particulars: Homo sapiens, 72 h exposure. The protocol:
The HepG2 (Human hepatocyte carcinoma) cell line was procured from ATCC (American Type Culture Collection, Manassas, USA; HB-8065) and viability assessed using CellTiter-Glo luminescent cell viability assay reagents (Promega). For the assay, 2,000 cells/well were plated in 384-well plates 24 h prior to the experiment and incubated at 37°C in a CO2 incubator. The medium was removed; and cells were treated with fresh medium containing either vehicle (0.5% DMSO) or serially diluted compounds or doxorubicin (1.3 nM to 25 μM) in a final volume of 50 μL/well and further incubated for 72 h at 37°C in a CO2 incubator. […] Following incubation, 25 μL of medium was discarded and 25 μl of CellTiter-Glo reagent was added to each well and the plate was kept on a plate shaker for 15 min at 25°C with shaking at 300 rpm. Luminescence signals were measured in a PHERAstar FSX reader (BMG LABTECH).
(In ATP-based viability assays light output follows the ATP content of the culture.)

In assay [1] the target is T1, SAE (SUMO-activating enzyme) (Homo sapiens, UniProt Q9UBT2).
T1 sequence (Q9UBT2 1-640): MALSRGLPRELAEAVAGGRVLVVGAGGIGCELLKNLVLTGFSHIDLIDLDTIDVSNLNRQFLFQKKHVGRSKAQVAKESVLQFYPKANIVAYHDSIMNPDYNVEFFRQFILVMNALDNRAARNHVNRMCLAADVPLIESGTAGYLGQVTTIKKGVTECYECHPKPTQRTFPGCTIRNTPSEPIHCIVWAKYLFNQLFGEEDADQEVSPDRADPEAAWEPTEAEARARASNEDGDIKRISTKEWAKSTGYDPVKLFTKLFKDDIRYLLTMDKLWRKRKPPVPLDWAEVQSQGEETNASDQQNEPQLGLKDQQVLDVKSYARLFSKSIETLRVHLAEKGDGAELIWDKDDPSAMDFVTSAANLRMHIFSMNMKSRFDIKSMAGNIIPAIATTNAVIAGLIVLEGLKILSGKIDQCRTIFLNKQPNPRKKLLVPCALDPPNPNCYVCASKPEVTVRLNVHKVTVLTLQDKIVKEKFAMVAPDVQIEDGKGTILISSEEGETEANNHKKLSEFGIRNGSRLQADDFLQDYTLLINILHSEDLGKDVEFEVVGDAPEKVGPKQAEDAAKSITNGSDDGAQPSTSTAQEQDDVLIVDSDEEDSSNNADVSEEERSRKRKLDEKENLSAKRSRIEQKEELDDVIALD
T1 sequence (Q9UBE0 1-346 partner): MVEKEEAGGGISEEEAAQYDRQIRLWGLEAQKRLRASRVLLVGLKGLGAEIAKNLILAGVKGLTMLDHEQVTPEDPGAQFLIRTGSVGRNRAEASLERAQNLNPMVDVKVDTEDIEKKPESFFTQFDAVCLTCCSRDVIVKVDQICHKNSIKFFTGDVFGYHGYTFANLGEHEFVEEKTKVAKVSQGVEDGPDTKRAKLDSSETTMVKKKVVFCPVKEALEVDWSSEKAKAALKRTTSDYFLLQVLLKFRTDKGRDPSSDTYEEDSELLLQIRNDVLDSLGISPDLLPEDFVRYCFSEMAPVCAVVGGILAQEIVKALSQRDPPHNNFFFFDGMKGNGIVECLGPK
Briefly: SAE E1-E2 transthiolation HTRF assay. It is filed as biochemical. The text has this: (§1) An Homogeneous Time-Resolved Fluorescence (HTRF) enzyme assay was employed to evaluate compound activity against ATG7 as previously described. In this assay, a Flag-tagged ATG8 homolog (GABA type A receptor-associated protein; GABARAP) is activated by ATG7 and then transthiolated to a GST-tagged E2 (ATG3). The product of the enzyme reaction, Flag-GABARAP-ATG3-GST, is quantified by measuring FRET between Europium-Cryptate labelled monoclonal anti-Flag M2 (FLAG M2-Eu cryptate; Revvity, Cat# 61FG2KLB) and […] (Anti-GST IgG conjugated to SureLight-Allophycocyanin) (Revvity, Cat# AD0059G)). The activation and transthiolation of ubiquitin by UAE, activation and transthiolation of NEDD8 by NAE and activation and transthiolation of SUMO by SAE were all assayed in a similar fashion with appropriately tagged ubiquitin-like proteins and E2 conjugating enzymes as described.
In general terms: In TR-FRET formats the signal depends on donor and acceptor labels being close together.

For assay [2], the target named is T2, UAE (ubiquitin activating enzyme) (Homo sapiens, UniProt P22314).
T2 sequence (P22314 1-1058): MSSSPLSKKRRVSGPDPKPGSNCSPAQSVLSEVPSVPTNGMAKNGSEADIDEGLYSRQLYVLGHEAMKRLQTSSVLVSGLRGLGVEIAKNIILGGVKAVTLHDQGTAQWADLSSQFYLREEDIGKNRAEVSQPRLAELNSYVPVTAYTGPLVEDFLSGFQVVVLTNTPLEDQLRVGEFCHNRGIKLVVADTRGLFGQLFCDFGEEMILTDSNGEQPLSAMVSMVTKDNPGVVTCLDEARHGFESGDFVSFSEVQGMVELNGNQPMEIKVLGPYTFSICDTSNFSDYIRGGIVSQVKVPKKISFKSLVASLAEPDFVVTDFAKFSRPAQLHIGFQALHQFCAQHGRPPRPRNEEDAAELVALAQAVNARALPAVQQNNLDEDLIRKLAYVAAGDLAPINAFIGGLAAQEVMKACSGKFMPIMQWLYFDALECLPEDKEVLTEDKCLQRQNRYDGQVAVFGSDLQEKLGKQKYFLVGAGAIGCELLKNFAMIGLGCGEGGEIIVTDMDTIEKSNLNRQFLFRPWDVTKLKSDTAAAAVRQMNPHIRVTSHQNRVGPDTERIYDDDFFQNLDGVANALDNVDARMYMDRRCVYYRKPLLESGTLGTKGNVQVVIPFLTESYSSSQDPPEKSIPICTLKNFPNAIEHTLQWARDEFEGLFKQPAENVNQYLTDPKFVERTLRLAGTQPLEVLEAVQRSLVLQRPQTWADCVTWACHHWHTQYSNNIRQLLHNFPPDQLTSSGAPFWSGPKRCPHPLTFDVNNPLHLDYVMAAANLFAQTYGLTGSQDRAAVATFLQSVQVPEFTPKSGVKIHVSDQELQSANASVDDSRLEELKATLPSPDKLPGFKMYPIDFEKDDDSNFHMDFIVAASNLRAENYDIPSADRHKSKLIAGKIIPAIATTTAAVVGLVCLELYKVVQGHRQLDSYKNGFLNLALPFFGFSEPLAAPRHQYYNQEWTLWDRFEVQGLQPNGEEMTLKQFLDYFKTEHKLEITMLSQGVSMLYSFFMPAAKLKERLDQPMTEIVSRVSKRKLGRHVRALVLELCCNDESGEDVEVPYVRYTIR
As to the kind of experiment: UAE E1-E2 transthiolation HTRF assay. It is filed as biochemical.
Source text: as §1

With `Nc1ncnc2c1c(C(F)(F)F)nn2[C@@H]1O[C@H](COS(N)(=O)=O)[C@@H](O)[C@H]1O` [ML107], the IC50 turned out to be 2.52 µM in the assay on HepG2 cells, 78.5 ± 6.2 µM in assay [1] and 22.9 ± 0.7 µM in assay [2].

As for `Nc1ncnc2c1c(Oc1ccccc1)nn2[C@@H]1O[C@H](COS(N)(=O)=O)[C@@H](O)[C@H]1O` [ML470], the IC50 in the assay on HepG2 cells is more than 50 µM; in assay [1] it was more than 100 µM; in assay [2], more than 100 µM.

Turning to `CC(C)c1nn([C@@H]2O[C@H](COS(N)(=O)=O)[C@@H](O)[C@H]2O)c2ncnc(N)c12` [ML471, ((2R,3S,4R,5R)-5-(4-amino-3-isopropyl-1H-pyrazolo[3,4-d]pyrimidin-1-yl)-3,4-dihydroxytetrahydrofuran-2-yl)methyl sulfamate], the figures for the IC50 (in the assay on HepG2 cells; in assay [1]; in assay [2]) were more than 50 µM, more than 100 µM and 85.7 ± 6.5 µM, respectively. Also, the “activity against SAE (in words)” value in assay [1] is reported as “no or very little activity”. Also, the “activity against UAE (in words)” value in assay [2] (human UAE in vitro) is on record as “no inhibitory activity; also recorded: no or very little activity”.

Turning to `CCOc1nn([C@@H]2O[C@H](COS(N)(=O)=O)[C@@H](O)[C@H]2O)c2ncnc(N)c12` [ML676], the IC50 was found to be 22.4 µM in the assay with HepG2 cells, 31.4 ± 5.7 µM in assay [1] and 73.4 ± 3.5 µM in assay [2].

With `CCc1nn([C@@H]2O[C@H](COS(N)(=O)=O)[C@@H](O)[C@H]2O)c2ncnc(N)c12` [ML681], the values for the IC50 (with HepG2 cells; in assay [1]; in assay [2]) were 7.53 µM, 22.4 ± 3.1 µM and 8.7 ± 0.6 µM, respectively.

For `CC(C)Oc1nn([C@@H]2O[C@H](COS(N)(=O)=O)[C@@H](O)[C@H]2O)c2ncnc(N)c12` [ML723], the IC50 in the assay on HepG2 cells is more than 50 µM; in assay [1], more than 100 µM; in assay [2] it was more than 100 µM.

With `Nc1ncnc2c1c(OC(F)F)nn2[C@@H]1O[C@H](COS(N)(=O)=O)[C@@H](O)[C@H]1O` [ML901], the IC50 with HepG2 cells was 4.65 µM; in assay [1] it was more than 100 µM; in assay [2], 5.39 ± 0.16 µM. Besides, the “activity against SAE (in words)” value in assay [1] is given as “no activity”.

By IC50 is commonly meant the concentration needed to halve the response being measured. A lower IC50 goes with higher potency.
